The conditions of data set [1]: 101.33 kPa, Liquid, Cone and plate viscometry.
A short description of data set [2]: refractive index (Na D-line) (dimensionless). The note with it: 101.33 kPa, Liquid, Standard Abbe refractometry.
Data set [3] can be described thus: φn = volume fraction of the nth substance listed. The note with it: 101 kPa, Liquid, Camera Imaging, φ1 = 0.5.
A short description of data set [4]: xn = mol fraction of the nth substance listed. The conditions noted are these: 298.2 K, 101 kPa, Liquid, Camera Imaging.

± gives the expanded uncertainty stated by the source.

Regarding `O` [water], the viscosity (usually the internal friction of a fluid under shear) in data set [1] (298.2 K) worked out at 0.9 mPa·s; in data set [1] (308.2 K), 0.72 mPa·s; in data set [1] (318.2 K), 0.61 mPa·s; in data set [1] (328.2 K), 0.5 mPa·s; in data set [1] (338.2 K), 0.43 mPa·s. In addition, the refractive index – broadly, a measure of how strongly the sample bends light – in data set [2] (298.2 K) was 1.3325 ± 0.0005; in data set [2] (308.2 K) it was 1.3313 ± 0.0005; in data set [2] (318.2 K) it was 1.3299 ± 0.0005; in data set [2] (328.2 K), 1.3282 ± 0.0005; in data set [2] (338.2 K) it was 1.3275 ± 0.0005.
Consider `Cn1cc[n+](C)c1.F[B-](F)(F)F` [1,3-dimethyl-1H-imidazolium tetrafluoroborate] + O, for which the binary diffusion coefficient in data set [3] (298.2 K) was 6.87e-10 m2/s; in data set [3] (308.2 K), 7.74e-10 m2/s; in data set [3] (318.2 K) it was 8.45e-10 m2/s; in data set [3] (328.2 K) it was 9.62e-10 m2/s; in data set [3] (338.2 K), 1.06e-09 m2/s.
Regarding `CCCCn1cc[n+](C)c1.N#CN=C=[N-]` [1-butyl-3-methylimidazolium dicyanamide] + O, the binary diffusion coefficient in data set [3] (298.2 K) was 2.53e-10 m2/s.
In the case of `CCCCn1cc[n+](C)c1.F[B-](F)(F)F` [1-butyl-3-methylimidazolium tetrafluoroborate] + O, the binary diffusion coefficient was 1.24e-10 m2/s in data set [3] (298.2 K); 2.56e-10 m2/s in data set [3] (308.2 K); 3.83e-10 m2/s in data set [3] (318.2 K); 5.13e-10 m2/s in data set [3] (328.2 K); 6.45e-10 m2/s in data set [3] (338.2 K).
Take `CCCCn1cc[n+](C)c1.F[B-](F)(F)F` [1-butyl-3-methylimidazolium tetrafluoroborate]: the viscosity is given as 146 ± 4 mPa·s in data set [1] (298.2 K); 76 ± 2 mPa·s in data set [1] (308.2 K); 45 ± 1 mPa·s in data set [1] (318.2 K); 29 ± 1 mPa·s in data set [1] (328.2 K); 21 ± 1 mPa·s in data set [1] (338.2 K). For the same compound, the refractive index is 1.4184 ± 0.0004 in data set [2] (298.2 K); 1.4163 ± 0.0004 in data set [2] (308.2 K); 1.4142 ± 0.0004 in data set [2] (318.2 K); 1.4125 ± 0.0004 in data set [2] (328.2 K); 1.4106 ± 0.0004 in data set [2] (338.2 K).
Consider `CCn1cc[n+](C)c1.[O-][Cl+3]([O-])([O-])[O-]` [1-ethyl-3-methylimidazolium perchlorate] + O, for which the binary diffusion coefficient in data set [3] (298.2 K) is 1.93e-10 m2/s.
For `OCCO` [1,2-ethanediol] + O, the binary diffusion coefficient stood at 1.23e-09 m2/s in data set [4] (x1 = 0.0323); 8.36e-10 m2/s in data set [4] (x1 = 0.0698); 7.12e-10 m2/s in data set [4] (x1 = 0.114); 6.38e-10 m2/s in data set [4] (x1 = 0.1667); 5.86e-10 m2/s in data set [4] (x1 = 0.242); 5.02e-10 m2/s in data set [4] (x1 = 0.3104). The binary diffusion coefficient was found to be 4.33e-10 m2/s in data set [4] (x1 = 0.4119), 3.2e-10 m2/s in data set [4] (x1 = 0.5456) and 2.84e-10 m2/s in data set [4] (x1 = 0.7298).
As for `CCn1cc[n+](C)c1.N#CN=C=[N-]` [1-ethyl-3-methylimidazolium dicyanamide] + O, the binary diffusion coefficient in data set [3] (298.2 K) is 7.25e-10 m2/s.
Turning to `CCCCn1cc[n+](C)c1.O=[N+]([O-])[O-]` [1-butyl-3-methylimidazolium nitrate] + O, the binary diffusion coefficient in data set [3] (298.2 K) worked out at 3.13e-10 m2/s.
As for `Cn1cc[n+](C)c1.F[B-](F)(F)F` [1,3-dimethyl-1H-imidazolium tetrafluoroborate], the viscosity came out at 34 ± 1 mPa·s in data set [1] (298.2 K); 22 ± 1 mPa·s in data set [1] (308.2 K); 15 ± 1 mPa·s in data set [1] (318.2 K); 11 ± 1 mPa·s in data set [1] (328.2 K); 7.8 ± 1 mPa·s in data set [1] (338.2 K). For the same compound, the refractive index in data set [2] (298.2 K) was determined as 1.4023 ± 0.0004; in data set [2] (318.2 K), 1.3993 ± 0.0004; in data set [2] (328.2 K) it was 1.3988 ± 0.0004; in data set [2] (338.2 K), 1.3975 ± 0.0004.
As for `CCn1cc[n+](C)c1.F[B-](F)(F)F` [1-ethyl-3-methylimidazolium tetrafluoroborate], the viscosity is 45 ± 1 mPa·s in data set [1] (298.2 K); 27 ± 1 mPa·s in data set [1] (308.2 K); 19 ± 1 mPa·s in data set [1] (318.2 K); 14 ± 1 mPa·s in data set [1] (328.2 K); 11 ± 1 mPa·s in data set [1] (338.2 K). The refractive index in data set [2] (298.2 K) turned out to be 1.4098 ± 0.0004; in data set [2] (308.2 K), 1.4082 ± 0.0004; in data set [2] (318.2 K), 1.4065 ± 0.0004; in data set [2] (328.2 K), 1.4053 ± 0.0004; in data set [2] (338.2 K), 1.4035 ± 0.0004.
Consider `CCn1cc[n+](C)c1.F[B-](F)(F)F` [1-ethyl-3-methylimidazolium tetrafluoroborate] + O, for which the binary diffusion coefficient in data set [3] (298.2 K) was found to be 3.42e-10 m2/s; in data set [3] (308.2 K), 4.65e-10 m2/s; in data set [3] (318.2 K), 5.57e-10 m2/s; in data set [3] (328.2 K) it was 6.72e-10 m2/s; in data set [3] (338.2 K), 7.89e-10 m2/s.
